What was measured:
Assay type in all cases: in vivo
[1] = system: purple nutsedge (Cyperus rotundus); assay: Test B pre-/postemergence; set-up: key: 0 is no effect; 10 is complete control
Text: (§1) Seeds of bedstraw (Galium aparine), blackgrass (Alopecurus myosuroides), broadleaf signalgrass (Brachiaria decumbens), cocklebur (Xanthium strumarium), corn (Zea mays), crabgrass (Digitaria sanguinalis), giant foxtail (Setaria faberii), lambsquarters (Chenopodium album), momingglory (Ipomoea hederacea), pigweed (Amaranthus retroflexus), rape (Brassica napus), soybean (Glycine max), sugar beet (Beta vulgaris), velvetleaf (Abutilon theophrasti), wheat (Triticum aestivum), wild oat (Avena fatua) and purple nutsedge (Cyperus rotundus) tubers were planted and treated preemergence with test chemicals formulated in a non-phytotoxic solvent mixture which included a surfactant.
(§2) At the same time, these crop and weed species were also treated with postemergence applications of test chemicals formulated in the same manner. Plants ranged in height from 2 to 18 cm (1- to 4-leaf stage) for postemergence treatments. Plant species in the flood test consisted of rice (Oryza sativa), smallflower flatsedge (Cyperus difformis), duck salad (Heteranthera limosa) and bamyardgrass (Echinochloa crus-galli) grown to the 2-leaf stage for testing. Treated plants and controls were maintained in a greenhouse for twelve to sixteen days, after which all species were compared to controls and visually evaluated. Plant response ratings, summarized in Table B, are based on a scale of 0 to 10 where 0 is no effect and 10 is complete control. A dash (−) response means no test result.

[2] = system: giant foxtail (Setaria faberii); assay: Test B pre-/postemergence; set-up: key: 0 is no effect; 10 is complete control
Text: as §1, §2

[3] = system: blackgrass (Alopecurus myosuroides); assay: Test B pre-/postemergence; set-up: key: 0 is no effect; 10 is complete control
Text: as §1, §2

[4] = system: pigweed (Amaranthus retroflexus); assay: Test B pre-/postemergence; set-up: key: 0 is no effect; 10 is complete control
Text: as §1, §2

[5] = system: rape (Brassica napus); assay: Test B pre-/postemergence; set-up: key: 0 is no effect; 10 is complete control
Text: as §1, §2

[6] = system: broadleaf signalgrass (Brachiaria decumbens); assay: Test B pre-/postemergence; set-up: key: 0 is no effect; 10 is complete control
Text: as §1, §2

[7] = system: momingglory (Ipomoea hederacea); assay: Test B pre-/postemergence; set-up: key: 0 is no effect; 10 is complete control
Text: as §1, §2

[8] = system: wild oat (Avena fatua); assay: Test B pre-/postemergence; set-up: key: 0 is no effect; 10 is complete control
Text: as §1, §2

[9] = system: cocklebur (Xanthium strumarium); assay: Test B pre-/postemergence; set-up: key: 0 is no effect; 10 is complete control
Text: as §1, §2

[10] = system: crabgrass (Digitaria sanguinalis); assay: Test B pre-/postemergence; set-up: key: 0 is no effect; 10 is complete control
Text: as §1, §2

[11] = system: sugar beet (Beta vulgaris); assay: Test B pre-/postemergence; set-up: key: 0 is no effect; 10 is complete control
Text: as §1, §2

[12] = system: velvetleaf (Abutilon theophrasti); assay: Test B pre-/postemergence; set-up: key: 0 is no effect; 10 is complete control
Text: as §1, §2

[13] = system: corn (Zea mays); assay: Test B pre-/postemergence; set-up: key: 0 is no effect; 10 is complete control
Text: as §1, §2

[14] = system: wheat (Triticum aestivum); assay: Test B pre-/postemergence; set-up: key: 0 is no effect; 10 is complete control
Text: as §1, §2

[15] = system: soybean (Glycine max); assay: Test B pre-/postemergence; set-up: key: 0 is no effect; 10 is complete control
Text: as §1, §2

[16] = system: bedstraw (Galium aparine); assay: Test B pre-/postemergence; set-up: key: 0 is no effect; 10 is complete control
Text: as §1, §2

[17] = system: bamyardgrass (Echinochloa crus-galli); assay: Test B flood test
Summary of the method: (§3)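 Plants were grown to the 2-leaf stage before treatment with test chemical, then held in a greenhouse for twelve to sixteen days. Injury was visually rated against untreated controls on a 0–10 scale, where 0 is no effect and 10 is complete control.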

[18] = system: duck salad (Heteranthera limosa); assay: Test B flood test
Summary of the method: as §3

[19] = system: rice (Oryza sativa); assay: Test B flood test
Summary of the method: as §3

[20] = system: smallflower flatsedge (Cyperus difformis); assay: Test B flood test
Summary of the method: as §3

[21] = Rate 62 g/ha, Postemergence (flood test)
[22] = Rate 125 g/ha, Postemergence, flood test
[23] = Rate 250 g/ha, Postemergence (flood test species)

Cc1cnc(-c2ccc(C(F)(F)F)cc2)nc1C(C#N)c1cccc(C(F)(F)F)c1 (racemic) [Compound 17]
6: Plant response rating, Blackgrass ([3]; Rate 125 g/ha, Postemergence) | Blackgrass plant response rating ([3]; Rate 125 g/ha, Preemergence) | Plant response rating, Barnyardgrass [17, 23] | Plant response rating, Rice [19, 23]
9: Plant response rating, Blackgrass ([3]; Rate 250 g/ha, Preemergence) | Plant response rating, Redroot pigweed ([4]; Rate 62 g/ha, Postemergence) | Redroot pigweed plant response rating ([4]; Rate 125 g/ha, Preemergence) | Plant response rating, B. signalgrass ([6]; Rate 250 g/ha, Preemergence) | Plant response rating, Crabgrass ([10]; Rate 250 g/ha, Preemergence) | Plant response rating, Sugarbeets ([11]; Rate 62 g/ha, Postemergence) | Plant response rating, Sugarbeets ([11]; Rate 250 g/ha, Preemergence) | Plant response rating, Bedstraw ([16]; Rate 125 g/ha, Postemergence) | Plant response rating, Bedstraw ([16]; Rate 250 g/ha, Postemergence)
1: Morningglory plant response rating ([7]; Rate 125 g/ha, Preemergence) | Sugarbeets plant response rating ([11]; Rate 62 g/ha, Preemergence) | Velvetleaf plant response rating ([12]; Rate 125 g/ha, Preemergence) | Plant response rating, Velvetleaf ([12]; Rate 250 g/ha, Preemergence) | Plant response rating, Corn ([13]; Rate 250 g/ha, Preemergence) | Wheat plant response rating ([14]; Rate 125 g/ha, Preemergence) | Bedstraw plant response rating ([16]; Rate 62 g/ha, Preemergence)
4: Plant response rating, Giant foxtail ([2]; Rate 125 g/ha, Postemergence) | Redroot pigweed plant response rating ([4]; Rate 62 g/ha, Preemergence) | Plant response rating, B. signalgrass ([6]; Rate 62 g/ha, Postemergence) | Plant response rating, Wild oats ([8]; Rate 125 g/ha, Postemergence) | Plant response rating, Cocklebur ([9]; Rate 62 g/ha, Postemergence) | Plant response rating, Crabgrass ([10]; Rate 62 g/ha, Postemergence) | Plant response rating, Crabgrass ([10]; Rate 125 g/ha, Postemergence) | Plant response rating, Crabgrass ([10]; Rate 250 g/ha, Postemergence) | Plant response rating, Velvetleaf ([12]; Rate 125 g/ha, Postemergence) | Plant response rating, Wheat ([14]; Rate 250 g/ha, Postemergence) | Plant response rating, Barnyardgrass [17, 21] | Plant response rating, Barnyardgrass [17, 22] | Plant response rating, Rice [19, 21] | Plant response rating, Rice [19, 22]
5: Giant foxtail plant response rating ([2]; Rate 62 g/ha, Preemergence) | Plant response rating, Giant foxtail ([2]; Rate 250 g/ha, Postemergence) | Plant response rating, B. signalgrass ([6]; Rate 125 g/ha, Postemergence) | Wild oats plant response rating ([8]; Rate 125 g/ha, Preemergence) | Plant response rating, Wild oats ([8]; Rate 250 g/ha, Postemergence) | Plant response rating, Bedstraw ([16]; Rate 250 g/ha, Preemergence) | Plant response rating, Ducksalad [18, 22] | Plant response rating, Ducksalad [18, 23] | Plant response rating, S. Flatsedge [20, 23]
2: Plant response rating, Giant foxtail ([2]; Rate 62 g/ha, Postemergence) | Blackgrass plant response rating ([3]; Rate 62 g/ha, Preemergence) | Rape plant response rating ([5]; Rate 125 g/ha, Preemergence) | Plant response rating, Morningglory ([7]; Rate 250 g/ha, Preemergence) | Wild oats plant response rating ([8]; Rate 62 g/ha, Preemergence) | Plant response rating, Velvetleaf ([12]; Rate 62 g/ha, Postemergence) | Plant response rating, Corn ([13]; Rate 62 g/ha, Postemergence) | Plant response rating, Corn ([13]; Rate 125 g/ha, Postemergence) | Plant response rating, S. Flatsedge [20, 21]
8: Plant response rating, Rape ([5]; Rate 125 g/ha, Postemergence) | Plant response rating, Rape ([5]; Rate 250 g/ha, Postemergence) | Plant response rating, Morningglory ([7]; Rate 125 g/ha, Postemergence) | Plant response rating, Morningglory ([7]; Rate 250 g/ha, Postemergence) | Plant response rating, Wild oats ([8]; Rate 250 g/ha, Preemergence) | Plant response rating, Cocklebur ([9]; Rate 125 g/ha, Postemergence) | Plant response rating, Cocklebur ([9]; Rate 250 g/ha, Postemergence) | Crabgrass plant response rating ([10]; Rate 125 g/ha, Preemergence) | Sugarbeets plant response rating ([11]; Rate 125 g/ha, Preemergence) | Plant response rating, Soybean ([15]; Rate 250 g/ha, Postemergence) | Plant response rating, Bedstraw ([16]; Rate 62 g/ha, Postemergence)
10: Giant foxtail plant response rating ([2]; Rate 125 g/ha, Preemergence) | Plant response rating, Giant foxtail ([2]; Rate 250 g/ha, Preemergence) | Plant response rating, Redroot pigweed ([4]; Rate 125 g/ha, Postemergence) | Plant response rating, Redroot pigweed ([4]; Rate 250 g/ha, Postemergence) | Plant response rating, Redroot pigweed ([4]; Rate 250 g/ha, Preemergence) | Plant response rating, Sugarbeets ([11]; Rate 125 g/ha, Postemergence) | Plant response rating, Sugarbeets ([11]; Rate 250 g/ha, Postemergence)
0: Plant response rating, Nutsedge ([1]; Rate 62 g/ha, Postemergence) | Nutsedge plant response rating ([1]; Rate 62 g/ha, Preemergence) | Plant response rating, Nutsedge ([1]; Rate 125 g/ha, Postemergence) | Nutsedge plant response rating ([1]; Rate 125 g/ha, Preemergence) | Plant response rating, Nutsedge ([1]; Rate 250 g/ha, Postemergence) | Plant response rating, Nutsedge ([1]; Rate 250 g/ha, Preemergence) | Rape plant response rating ([5]; Rate 62 g/ha, Preemergence) | Morningglory plant response rating ([7]; Rate 62 g/ha, Preemergence) | Cocklebur plant response rating ([9]; Rate 62 g/ha, Preemergence) | Cocklebur plant response rating ([9]; Rate 125 g/ha, Preemergence) | Plant response rating, Cocklebur ([9]; Rate 250 g/ha, Preemergence) | Velvetleaf plant response rating ([12]; Rate 62 g/ha, Preemergence) | Corn plant response rating ([13]; Rate 62 g/ha, Preemergence) | Corn plant response rating ([13]; Rate 125 g/ha, Preemergence) | Wheat plant response rating ([14]; Rate 62 g/ha, Preemergence) | Soybean plant response rating ([15]; Rate 62 g/ha, Preemergence) | Soybean plant response rating ([15]; Rate 125 g/ha, Preemergence) | Plant response rating, Soybean ([15]; Rate 250 g/ha, Preemergence)
3: Plant response rating, Blackgrass ([3]; Rate 62 g/ha, Postemergence) | Plant response rating, Rape ([5]; Rate 250 g/ha, Preemergence) | B. signalgrass plant response rating ([6]; Rate 62 g/ha, Preemergence) | Plant response rating, Wild oats ([8]; Rate 62 g/ha, Postemergence) | Crabgrass plant response rating ([10]; Rate 62 g/ha, Preemergence) | Plant response rating, Corn ([13]; Rate 250 g/ha, Postemergence) | Plant response rating, Wheat ([14]; Rate 62 g/ha, Postemergence) | Plant response rating, Wheat ([14]; Rate 125 g/ha, Postemergence) | Plant response rating, Wheat ([14]; Rate 250 g/ha, Preemergence) | Plant response rating, Soybean ([15]; Rate 62 g/ha, Postemergence) | Plant response rating, Soybean ([15]; Rate 125 g/ha, Postemergence) | Bedstraw plant response rating ([16]; Rate 125 g/ha, Preemergence) | Plant response rating, Ducksalad [18, 21] | Plant response rating, S. Flatsedge [20, 22]
7: Plant response rating, Blackgrass ([3]; Rate 250 g/ha, Postemergence) | Plant response rating, Rape ([5]; Rate 62 g/ha, Postemergence) | B. signalgrass plant response rating ([6]; Rate 125 g/ha, Preemergence) | Plant response rating, B. signalgrass ([6]; Rate 250 g/ha, Postemergence) | Plant response rating, Morningglory ([7]; Rate 62 g/ha, Postemergence) | Plant response rating, Velvetleaf ([12]; Rate 250 g/ha, Postemergence)

— patent publication US6525001B1, “Substituted pyrimidine and pyridine herbicides” (Mid-American Commercialization Corporation, priority 1997, dated 2003)
